Laboratory results published in patent US8377851B2, “Method of altering the alkaloid composition in poppy plants” (priority 2004, dated 2013).
Like-named read-outs stand apart in the source and are kept apart here.

Tests used:
morphine crop [1] = test system: morphine crop; design: species or system Papaver somniferum; conditions: in vivo
morphine crop [2] = assay: Example 29 field trial: methyl jasmonate, capsule/seed ratio and alkaloid assay
morphine crop [3] = test system: morphine crop; design: species or system Papaver somniferum; conditions: in vivo; remark: listed apart in the source

O=C(O)CN(CCN(CC(=O)O)CC(=O)O)CC(=O)O [EDTA]
CAPSULE/SEED RATIO (morphine crop [1]): 0.590 c | CODEINE kg/ha (morphine crop [1]): 0.790 b kg/ha | MORPHINE kg/ha (morphine crop [1]): 32.97 a kg/ha | ORIPAVINE kg/ha (morphine crop [1]): 0.618 c kg/ha | SEED kg/ha (morphine crop [1]): 1960 a kg/ha | STRAW CODEINE % (morphine crop [1]): 0.047 b % | STRAW MORPHINE % (morphine crop [1]): 1.98 a % | STRAW O'PAVINE % (morphine crop [1]): 0.036 b % | STRAW THEBAINE % (morphine crop [1]): 0.139 c % | STRAW kg/ha (morphine crop [1]): 1668 b kg/ha | THEBAINE kg/ha (morphine crop [1]): 2.350 c kg/ha | YIELD t/ha (morphine crop [1]): 3.63 ab t/ha

CC/C=C\CC1C(=O)CCC1CC(=O)OC (centres unmarked) [METHYL JASMONATE, methyl jasmonate]
CAPSULE/SEED RATIO (morphine crop [2]; METHYL JAS .15 L/ha at EF): 0.575 a | STRAW CODEINE (morphine crop [2]; METHYL JAS .15 L/ha at EF): 0.064 b % | STRAW MORPHINE (morphine crop [2]; METHYL JAS .15 L/ha at EF): 2.04 a % | STRAW O'PAVINE (morphine crop [2]; METHYL JAS .15 L/ha at EF): 0.009 b % | STRAW THEBAINE (morphine crop [2]; METHYL JAS .15 L/ha at EF): 0.042 b % | CAPSULE/SEED RATIO (morphine crop [2]; METHYL JAS .15 L/ha at GCAPS): 0.577 a | STRAW CODEINE (morphine crop [2]; METHYL JAS .15 L/ha at GCAPS): 0.044 c % | STRAW MORPHINE (morphine crop [2]; METHYL JAS .15 L/ha at GCAPS): 2.01 a % | STRAW O'PAVINE (morphine crop [2]; METHYL JAS .15 L/ha at GCAPS): 0.005 c % | STRAW THEBAINE (morphine crop [2]; METHYL JAS .15 L/ha at GCAPS): 0.033 c % | CAPSULE/SEED RATIO (morphine crop [2]; METHYL JAS .3 L/ha at EF): 0.581 a | STRAW CODEINE (morphine crop [2]; METHYL JAS .3 L/ha at EF): 0.075 a % | STRAW MORPHINE (morphine crop [2]; METHYL JAS .3 L/ha at EF): 2.09 a % | STRAW O'PAVINE (morphine crop [2]; METHYL JAS .3 L/ha at EF): 0.011 a % | STRAW THEBAINE (morphine crop [2]; METHYL JAS .3 L/ha at EF): 0.051 a % | CAPSULE/SEED RATIO (morphine crop [2]; METHYL JAS .3 L/ha at GCAPS): 0.577 a | STRAW CODEINE (morphine crop [2]; METHYL JAS .3 L/ha at GCAPS): 0.042 c % | STRAW MORPHINE (morphine crop [2]; METHYL JAS .3 L/ha at GCAPS): 2.04 a % | STRAW O'PAVINE (morphine crop [2]; METHYL JAS .3 L/ha at GCAPS): 0.004 c % | STRAW THEBAINE (morphine crop [2]; METHYL JAS .3 L/ha at GCAPS): 0.029 c % | CAPSULE/SEED RATIO (morphine crop [3]): 0.685 c | CODEINE kg/ha (morphine crop [3]): 1.104 a kg/ha | MORPHINE kg/ha (morphine crop [3]): 19.99 b kg/ha | ORIPAVINE kg/ha (morphine crop [3]): 7.853 c kg/ha | SEED kg/ha (morphine crop [3]): 1886 bc kg/ha | STRAW CODEINE % (morphine crop [3]): 0.059 a % | STRAW MORPHINE % (morphine crop [3]): 1.07 b % | STRAW O'PAVINE % (morphine crop [3]): 0.422 b % | STRAW THEBAINE % (morphine crop [3]): 1.028 c % | STRAW kg/ha (morphine crop [3]): 1863 b kg/ha | THEBAINE kg/ha (morphine crop [3]): 19.124 c kg/ha | YIELD kg/ha (morphine crop [3]): 3.75 a kg/ha
